Measurements taken from US9226501B2, “Pesticidal compositions and processes related thereto” (Dow AgroSciences LLC, priority 2012, dated 2016).

Experiments:
[1] = tested on: Beet Armyworm (BAW) (spodoptera exigua); assay: Bioassay on beet armyworm (BAW), 128-well diet tray assay; type: in vivo; details: for BAW Rating: Table 5, prophetic compounds subsequently exemplified, beet armyworm; for pest or weed control at 50 µg/cm2: Spodoptera exigua, 168 h, % mortality, second instar larvae, 50 μg/cm^2 on artificial diet, five to seven days, 25° C., read-out: BAW Rating
Procedure: (§1) Certain molecules disclosed in this document were tested against BAW, CEW and CL using procedures described in the following examples. In the reporting of the results, the “BAW & CEW & CL Rating Table” was used (See Table Section).
Bioassays on BAW were conducted using a 128-well diet tray assay. One to five second instar BAW larvae were placed in each well (3 mL) of the diet tray that had been previously filled with 1 mL of artificial diet to which 50 μg/cm^2 of the test compound (dissolved in 50 μL of 90:10 acetone-water mixture) had been applied (to each of eight wells) and then allowed to dry. Trays were covered with a clear self-adhesive cover, and held at 25° C., 14:10 light-dark for five to seven days. Percent mortality was recorded for the larvae in each well; activity in the eight wells was then averaged. The results are indicated in the tables entitled “Table 3: Assay Results Part 1” and “Table 4: Assay Results Part 2” (See Table Section).

[2] = tested on: Cabbage Looper (CL) (Trichoplusia ni); assay: Bioassay on cabbage looper (CL), 128-well diet tray assay; type: in vivo; details: for CL Rating: Table 5, prophetic compounds subsequently exemplified, cabbage looper; for pest or weed control at 50 µg/cm2: Trichoplusia ni, 168 h, % mortality, second instar larvae, 50 μg/cm^2 on artificial diet, five to seven days, 25° C., read-out: CL Rating
Procedure: as §1
Bioassays on CL were conducted using a 128-well diet tray assay. One to five second instar CL larvae were placed in each well (3 mL) of the diet tray that had been previously filled with 1 mL of artificial diet to which 50 μg/cm^2 of the test compound (dissolved in 50 μL of 90:10 acetone-water mixture) had been applied (to each of eight wells) and then allowed to dry. Trays were covered with a clear self-adhesive cover, and held at 25° C., 14:10 light-dark for five to seven days. Percent mortality was recorded for the larvae in each well; activity in the eight wells was then averaged. The results are indicated in the table entitled “Table 4: Assay Results Part 2” (See Table Section).

Row | Compound | BAW Rating [1] | CL Rating [2] | pest or weed control at 50 µg/cm2 [1] [%] | pest or weed control at 50 µg/cm2 [2] [%]
1 | CCNC(=O)[C@@H](C)NC(=O)c1ccc(/C=C/C(c2cc(Cl)c(Cl)c(Cl)c2)C(F)(F)F)cc1C(F)(F)F (stereo partly drawn) [P1623] | A (50-100) | A (50-100) | – | –
2 | O=C(CNC(=O)c1ccc(/C=C/C(c2cccc(C(F)(F)F)c2)C(F)(F)F)cc1Br)NCC(F)(F)F (stereo not drawn) [P1] | A (50-100) | A (50-100) | – | –
3 | CC(NC(=O)CNC(=O)c1ccc(/C=C/C(c2cc(Br)cc(Br)c2)C(F)(F)F)cc1C(F)(F)F)C(F)(F)F (stereo not drawn) [P2011] | A (50-100) | A (50-100) | – | –
4 | O=C(CNC(=O)c1ccc(/C=C/C(c2cc(Cl)c(Cl)c(Cl)c2)C(F)(F)F)cc1I)NCC(F)(F)F (stereo not drawn) [FA24] | – | – | 50 to 100 | 50 to 100
5 | C[C@@H](NC(=O)c1ccc(/C=C/C(c2cc(Br)cc(Br)c2)C(F)(F)F)cc1Br)C(=O)NCCC(F)(F)F (stereo partly drawn) [P2056] | A (50-100) | A (50-100) | – | –
6 | O=C(CNC(=O)c1ccc(/C=C/C(c2ccc(Cl)c(Cl)c2)C(F)(F)F)cc1)NCC(F)(F)F (stereo not drawn) [P1781] | A (50-100) | A (50-100) | – | –
7 | C=Cc1cc(/C=C/C(c2cc(Cl)c(Cl)c(Cl)c2)C(F)(F)F)ccc1C(=O)N[C@H](C)C(=O)NCC(F)(F)F (stereo partly drawn) [FA17] | – | – | 50 to 100 | 50 to 100
8 | C[C@@H](NC(=O)c1ccc(/C=C/C(c2cc(Cl)c(Br)c(Cl)c2)C(F)(F)F)cc1Br)C(=O)NCC(F)(F)F (stereo partly drawn) [FA22] | – | – | 50 to 100 | 50 to 100
9 | C[C@@H](NC(=O)c1ccc(/C=C/C(c2cc(Br)c(Cl)c(Br)c2)C(F)(F)F)cc1C(F)(F)F)C(=O)NCC(F)(F)F (stereo partly drawn) [FA27] | – | – | 50 to 100 | 50 to 100
10 | CC(C)[C@@H](NC(=O)c1ccc(/C=C/C(c2cc(Cl)c(Cl)c(Cl)c2)C(F)(F)F)cc1C(F)(F)F)C(=O)NCC(F)(F)F (stereo partly drawn) [FA33] | – | – | 50 to 100 | 50 to 100
11 | C[C@@H](NC(=O)c1ccc(/C=C/C(c2ccc(Cl)c(Cl)c2)C(C)(F)F)cc1Br)C(=O)NCC(F)(F)F (stereo partly drawn) [FA29] | – | – | 50 to 100 | 50 to 100
12 | O=C(CNC(=O)c1ccc(/C=C/C(c2ccc(Cl)c(Cl)c2)C(F)(F)F)cc1Br)NCC(F)(F)F (stereo not drawn) [P1776] | A (50-100) | A (50-100) | – | –
13 | CC(NC(=O)c1ccc(/C=C/C(c2cc(Cl)c(Cl)c(Cl)c2)C(F)(F)F)cc1C(F)(F)F)C(=O)NCC(F)F (stereo not drawn) [P1613A] | A (50-100) | A (50-100) | – | –
14 | CC(F)(F)CNC(=O)C(C)(C)NC(=O)c1ccc(/C=C/C(c2cc(Cl)c(Cl)c(Cl)c2)C(F)(F)F)cc1Br (stereo not drawn) [FA23] | – | – | 50 to 100 | 50 to 100
15 | C[C@@H](NC(=O)c1ccc(/C=C/C(c2cc(F)cc(Br)c2)C(F)(F)F)cc1C(F)(F)F)C(=O)NCC(F)(F)F (stereo partly drawn) [P300] | A (50-100) | A (50-100) | – | –
16 | C[C@@H](NC(=O)c1ccc(/C=C/C(c2cc(Cl)cc(Cl)c2)C(F)(F)F)cc1Br)C(=O)NCC(F)(F)F (stereo partly drawn) [P1696] | A (50-100) | A (50-100) | – | –
17 | C[C@@H](NC(=O)c1ccc(/C=C/C(c2cc(Cl)cc(Br)c2)C(F)(F)F)cc1Br)C(=O)NCC(F)(F)F (stereo partly drawn) [P586] | A (50-100) | A (50-100) | – | –
18 | CC(NC(=O)CNC(=O)c1ccc(/C=C/C(c2cc(Cl)c(Cl)c(Cl)c2)C(F)(F)F)cc1C(F)(F)F)C(F)(F)F (stereo not drawn) [P1591] | A (50-100) | A (50-100) | – | –
19 | CC(C)(NC(=O)c1ccc(/C=C/C(c2cc(Cl)c(Cl)c(Cl)c2)C(F)(F)F)cc1C(F)(F)F)C(=S)NCC(F)(F)F (stereo not drawn) [FA12] | – | – | 50 to 100 | 50 to 100
20 | C[C@@H](NC(=O)c1ccc(/C=C/C(c2cc(Cl)c(Cl)c(Cl)c2)C(F)(F)F)cc1)C(=O)NCC(F)(F)F (stereo partly drawn) [P1603] | A (50-100) | A (50-100) | – | –
21 | Cc1cc(/C=C/C(c2cc(Cl)c(Cl)c(Cl)c2)C(F)(F)F)ccc1C(=S)NCC(=S)NCC(F)(F)F (stereo not drawn) [P15] | A (50-100) | A (50-100) | – | –
22 | C[C@@H](NC(=O)c1ccc(/C=C/C(c2ccc(Cl)c(Cl)c2)C(F)(F)F)cc1Br)C(=O)NCC(F)(F)F (stereo partly drawn) [P1806] | A (50-100) | A (50-100) | – | –
23 | O=C(CNC(=O)c1ccc(/C=C/C(c2cc(Cl)cc(C(F)(F)F)c2)C(F)(F)F)cc1Br)NCC(F)(F)F (stereo not drawn) [P1411] | A (50-100) | A (50-100) | – | –

Row | Compound | BAW Rating [1] | CL Rating [2] | pest or weed control at 50 µg/cm2 [1] [%] | pest or weed control at 50 µg/cm2 [2] [%]
24 | O=C(NCC(=S)NCC(F)(F)F)c1ccc(/C=C/C(c2cc(Cl)c(F)c(Cl)c2)C(F)(F)F)cc1C(F)(F)F (stereo not drawn) [P1866] | A (50-100) | A (50-100) | – | –
25 | COc1c(F)cc(C(/C=C/c2ccc(C(=O)NCC(=O)NCC(F)(F)F)c(Br)c2)C(F)(F)F)cc1F (stereo not drawn) [FA8] | – | – | 0 to 50 | 50 to 100
26 | COc1cc(C(=O)NCC(=O)NCC(F)(F)F)c(Cl)cc1/C=C/C(c1cc(Cl)c(Cl)c(Cl)c1)C(F)(F)F (stereo not drawn) [FA5] | – | – | 50 to 100 | 50 to 100
27 | O=C(CNC(=O)c1ccc(/C=C/C(c2cc(Cl)c(Cl)c(Cl)c2)C(F)(F)F)cc1Br)NCC(F)F (stereo not drawn) [FA3] | – | – | 50 to 100 | 50 to 100
28 | CCNC(=O)[C@@H](C)NC(=O)c1ccc(/C=C/C(c2cc(Cl)c(Cl)c(Cl)c2)C(F)(F)F)cc1Br (stereo partly drawn) [P1621] | A (50-100) | A (50-100) | – | –
29 | CC(C)(NC(=O)c1ccc(/C=C/C(c2cc(Cl)c(Cl)c(Cl)c2)C(F)(F)F)cc1Cl)C(=S)NCC(F)(F)F (stereo not drawn) [FA9] | – | – | 50 to 100 | 50 to 100
30 | O=C(NCC(=S)NCC(F)(F)F)c1ccc(/C=C/C(c2cc(Cl)c(F)c(Cl)c2)C(F)(F)F)cc1Br (stereo not drawn) [P1864] | A (50-100) | A (50-100) | – | –
31 | C[C@@H](NC(=O)c1ccc(/C=C/C(c2cc(Cl)c(Cl)c(Cl)c2)C(F)(F)F)cc1Br)C(=O)NCCF (stereo partly drawn) [P1616] | A (50-100) | A (50-100) | – | –
32 | O=C(CNC(=O)c1ccc(/C=C/C(c2ccc(F)c(C(F)(F)F)c2)C(F)(F)F)cc1Br)NCC(F)(F)F (stereo not drawn) [P1483] | A (50-100) | A (50-100) | – | –
33 | C[C@@H](NC(=O)c1ccc(/C=C/C(c2ccc(F)c(C#N)c2)C(F)(F)F)cc1Br)C(=O)NCC(F)(F)F (stereo partly drawn) [P802] | A (50-100) | A (50-100) | – | –
34 | CCC[C@@H](NC(=O)c1ccc(/C=C/C(c2cc(Cl)c(Cl)c(Cl)c2)C(F)(F)F)cc1C)C(=O)NCC(F)(F)F (stereo partly drawn) [FA25] | – | – | 50 to 100 | 50 to 100
35 | C[C@@H](NC(=O)c1ccc(/C=C/C(c2ccc(OC(F)(F)F)c(Cl)c2)C(F)(F)F)cc1Br)C(=O)NCC(F)(F)F (stereo partly drawn) [FA30] | – | – | 50 to 100 | 50 to 100
36 | O=C(CNC(=O)c1ccc(/C=C/C(c2cc(Cl)c(F)c(Cl)c2)C(F)(F)F)cc1C(F)(F)F)NCC(F)(F)F (stereo not drawn) [P1862] | A (50-100) | A (50-100) | – | –
37 | Cc1cc(/C=C/C(c2cc(Cl)c(Cl)c(Cl)c2)C(F)(F)F)ccc1C(=O)NCC(=O)NCC(F)F (stereo not drawn) [FA2] | – | – | 50 to 100 | 50 to 100
38 | CC(NC(=O)CNC(=O)c1ccc(/C=C/C(c2cc(Cl)c(Cl)c(Cl)c2)C(F)(F)F)cc1Br)C(F)(F)F (stereo not drawn) [P1589] | A (50-100) | A (50-100) | – | –
39 | Cc1ccc(C(/C=C/c2ccc(C(=O)N[C@H](C)C(=O)NCC(F)(F)F)c(C(F)(F)F)c2)C(F)(F)F)cc1Cl (stereo partly drawn) [P444] | A (50-100) | A (50-100) | – | –
40 | C[C@@H](NC(=O)c1ccc(/C=C/C(c2ccc(Br)c(Br)c2)C(F)(F)F)cc1Br)C(=O)NCC(F)(F)F (stereo partly drawn) [P568] | A (50-100) | A (50-100) | – | –
41 | CC(C)(NC(=O)c1ccc(/C=C/C(c2cc(Cl)c(Cl)c(Cl)c2)C(F)(F)F)cc1Br)C(=O)NCC#N (stereo not drawn) [FA14] | – | – | 50 to 100 | 50 to 100
42 | Cc1cc(C(/C=C/c2ccc(C(=O)N[C@H](C)C(=O)NCC(F)(F)F)c(Br)c2)C(F)(F)F)cc(C)c1F (stereo partly drawn) [P514] | A (50-100) | A (50-100) | – | –
43 | C[C@@H](NC(=O)c1ccc(/C=C/C(c2cc(Cl)c(Cl)c(Cl)c2)C(F)(F)C(F)(F)F)cc1C(F)(F)F)C(=O)NCC(F)(F)F (stereo partly drawn) [P1601] | A (50-100) | A (50-100) | – | –
44 | CC(C)(NC(=O)c1ccc(/C=C/C(c2cc(Cl)c(Cl)c(Cl)c2)C(F)(F)F)cc1)C(=O)NCC(F)(F)F (stereo not drawn) [P1636] | A (50-100) | A (50-100) | – | –
45 | O=C(CNC(=O)c1cc(O)c(/C=C/C(c2cc(Cl)c(Cl)c(Cl)c2)C(F)(F)F)cc1Cl)NCC(F)(F)F (stereo not drawn) [FA4] | – | – | 50 to 100 | 50 to 100
